Data set [1] can be described thus: Formation and stability of the NHS ester. It is filed as physicochemical. The procedure:
• Three stock solutions (A, B and C) were prepared. Solution A: 22 mg HATU (1-[bis(dimethylamino)methylene]-1H-1,2,3-triazolo[4,5-b]pyridinium 3-oxid hexafluorophosphate) in dry DMF (0.10 mL); solution B: Et3N (10 mg) in dry DMF (0.10 mL); solution C: N-hydroxysuccinimide (19 mg) in dry DMF (0.10 mL). To a solution of dye 5 (1.7 mg, 2.6 μmol) in dry DMF (0.10 mL), solutions A, B and C were added successively (14 μL of each solutions) under argon, and the mixture was stirred for 30 min at room temperature. HPLC analysis indicated the conversion degree of 94-95%. […] After removing DMF in vacuo, amide 5-Halo was isolated by preparative HPLC (˜1 mg, 46%), dissolved in DMSO (400 μL), and this stock-solution was used (after dilution with aqueous PBS to 1-5 μM) in labeling experiments with living cells (see section with imaging results). ESI-MS (C41H44C1F6N308, 855.27), positive mode: m/z (rel. int., %)=856 (100) [M+H]^+. HR-MS, ESI (positive mode): m/z=878.2591 (found [M+Na]^+), 878.2613 (calc.).

For data set [2] the following is noted: cited from earlier work.
A short description of data set [3]: Absorption, emission and fluorescence quantum yield of the dyes. It is filed as physicochemical. The following applies: for fluorescence quantum yield relative to Oxazine 1: PBS 7.4, Oxazine 1 Φfl=0.14 in ethanol; for fluorescence quantum yield: in PBS / aqueous buffers. The procedure:
Absorption spectra were recorded with a Varian Cary 4000 UV-Vis double-beam spectrophotometer (Agilent Technologies, USA). For the determination of the absorption spectra, quartz cells with a 1 cm path length were used. Emission spectra and fluorescence quantum yield were obtained on a Quantaurus-QY Absolute PL quantum yield spectrometer C11347 (Hamamatsu Photonics, Japan) or on a Varian Cary Eclipse fluorescence spectrometer (Agilent Technologies, USA).

Data set [4] is described as follows: Solubility in water and organic solvents. It is filed as physicochemical. Particulars: water, aqueous solutions, alcohols, DMSO, DMF, organic solvents as stated.
For data set [5], the system named is vimentin-HaloTag fusion protein in U2OS cells. The data set can be described thus: Live-cell labeling, confocal and STED imaging, U2OS cells. It is filed as cell-based. Particulars: 1 μM, 20 minutes at 37° C. The procedure: (§1) Either HeLa or U2OS cells were used. Cells were grown on #1.5 coverslips and cultured at 37° C. with 5% CO2 in DMEM (Dulbecco's modified Eagle's medium) supplemented with 10% FBS (fetal bovine serum), 1% sodium pyruvate and 1% penicillin/streptomycin. The U2OS cell line is a stable cell line which has a stable expression of the vimentin-HaloTag fusion protein (M. Ratz, I. Testa, S. W. Hell, S. Jakobs, Sci. Rep. 2015, 5, 9592). For the expression of vimentin-HaloTag fusion protein in HeLa cells, cells were transfected with 3 μg DNA/well using TurboFect™ Transfection Reagent (Fermentas/Thermo Scientific™, Life Technologies brand) in a 6 well plate. […]
(§2) Fluorescence detection was done in two spectral detection channels, 605-625 nm and 650-720 nm. […]
14a-Halo was excited with a pulsed 561 nm laser and fluorescence was detected in both detection windows: 605-625 nm and 650-720 nm. […] For the STED image the fluorescence counts of 3 scans per line were accumulated with a pixel dwell time of 15 μs. […]
6-ROX-Halo was excited with a pulsed 561 nm laser and fluorescence was detected in two detection windows: 605-625 nm and 650-720 nm. […] For the STED image the fluorescence counts of 3 scans per line were accumulated with a pixel dwell time of 15 μs. […]
19-Halo was excited with a pulsed 640 nm laser and fluorescence was detected from 650-720 nm. […]

The nature of data set [6]: D0.5 in 1,4-dioxane/water (closing into colorless spirolactone form). It is filed as physicochemical.
In data set [7] the test system is tubulin filaments in HeLa cells. The data set can be described thus: Live-cell tubulin labeling, confocal and STED imaging, HeLa cells. It is filed as cell-based. Particulars: 1-5 μM, 20 minutes at 37° C. The procedure:
as §1, §2
19-Tubulin was excited with a pulsed 640 nm laser and fluorescence was detected from 650-720 nm. […] For the STED image the fluorescence counts of 4 scans per line were accumulated with a pixel dwell time of 7 μs. […]
33-Tubulin was excited with a pulsed 640 nm laser and fluorescence was detected from 650-720 nm. […] The STED image was recorded with a pixel dwell time of 15 μs. […]

[8] abbreviates: aqueous PBS buffer, parent Q-rhodamine.
Setting [9] is: aqueous solutions, dye 5 isomer 3.
[10] abbreviates: commercial dyes, solvent not stated.

Values joined by “and” are separate entries in the source; they are usually repeats but may differ in a detail not shown here. Equal values may be shown once. Read-outs that look alike come from different tables or passages of the source.

Turning to 5(6)-carboxy-Q-rhodamine, the “stability of N-hydroxysuccinimidyl (NHS) ester” value (“stability” below) in data set [1] is “does not form a stable N-hydroxysuccinimidyl ester”. Besides, in data set [2] (setting [8]), the absorption maximum is recorded as 540 nm, the emission maximum is reported as 561 nm, the “extinction coefficient ε” value is 70 000 M^−1 cm^−1 and the fluorescence quantum yield is recorded as 0.79.
Take `O=C(O)c1ccc(C(=O)[O-])c(C2=c3cc4c(cc3Oc3cc5c(cc32)CC(O)CN5CC(F)(F)F)=[N+](CC(F)(F)F)CC(O)C4)c1` (stereo not drawn) [Compound 5, N,N′-Bis-(2,2,2-trifluoroethyl)-6′-carboxy-Q-rhodamine-β,β′-diol]: in data set [3] (setting [9]), the “absorption maximum λmax” value is 532 nm, the “emission maximum λmax” value turned out to be 553 nm and the “extinction coefficient ε” value turned out to be 56000 M⁻¹ cm⁻¹. Besides, the “fluorescence quantum yield Φfl, absolute value” in data set [3] (aqueous solutions, excitation at 488 nm, dye 5 isomer 3) was found to be 0.89. In data set [1], the “stability” value was “forms a stable NHS ester”. The solubility entry in data set [4] is reported as “water-soluble”. Besides, the solubility entry in data set [4] (listed as 5-OH) was “much better soluble”.
As to `COc1cc2c(c(Cl)c1O)Oc1c(cc(OC)c(O)c1Cl)C21OC(=O)c2ccc(C(=O)O)cc21` [Compound 6-JOE, 6-JOE], in data set [2] (setting [10]), the absorption maximum is 520 nm, the emission maximum is recorded as 548 nm and the “extinction coefficient ε” value was 75 000 M^−1 cm^−1.
Turning to `CN(C)c1ccc2[c](c1)[Ge]([CH3])([CH3])[c]1cc(N(C)C)ccc1C21OC(=O)c2ccc(C(=O)NCCOCCOCCCCCCCl)cc21` [Compound 19-Halo], the “imaging performance in living cells (confocal and STED)” value in data set [5] is recorded as “high contrast images”.
Consider `CN(C)c1ccc2[c](c1)[Ge]([CH3])([CH3])[c]1cc(N(C)C)ccc1C21OC(=O)c2ccc(C(=O)O)cc21` [Compound 19], for which, in data set [3], the “fluorescence quantum yield relative to Oxazine 1” value worked out at 0.43 and the fluorescence quantum yield is given as 0.43. In data set [3] (PBS buffer pH 7.4), the “absorption maximum λmax” value was 634 nm, the “emission maximum λem” value turned out to be 655 nm and the “extinction coefficient ε” value came to 97000 M⁻¹ cm⁻¹. The “D0.5 in 1,4-dioxane/water” value in data set [6] is reported as 65.2.
For `[CH3][Ge]1([CH3])[c]2cc(N3CC(O)C3)ccc2C2(OC(=O)c3ccc(C(=O)NCCOCCOCCCCCCCl)cc32)c2ccc(N3CC(O)C3)c[c]21` [Compound 33-Halo], in data set [3] (PBS buffer pH 7.4), the “absorption maximum λmax” value is 639 nm and the “emission maximum λem” value is 660 nm.
On to `[CH3][Ge]1([CH3])[c]2cc(N3CC(O)C3)ccc2C2(OC(=O)c3ccc(C(=O)O)cc32)c2ccc(N3CC(O)C3)c[c]21` [Compound 33], for which, in data set [3] (PBS buffer pH 7.4), the “absorption maximum λmax” value is recorded as 631 nm; the “emission maximum λem” value worked out at 651 nm; the “extinction coefficient ε” value was found to be 61000 M⁻¹ cm⁻¹; the “fluorescence quantum yield Φfl, absolute value” is reported as 0.60. In data set [3], this molecule showed a fluorescence quantum yield of 0.60. In data set [7], the “imaging performance in living cells (confocal and STED)” value was “higher brightness”.
In the case of `C[Si]1(C)c2cc(N3CC(O)C3)ccc2C2(OC(=O)c3ccc(C(=O)O)cc32)c2ccc(N3CC(O)C3)cc21` [Compound 42], in data set [3], the “fluorescence quantum yield relative to Oxazine 1” value is 0.42 and the fluorescence quantum yield is recorded as 0.42. Further, in data set [3] (PBS buffer pH 7.4), the “absorption maximum λmax” value was found to be 641 nm; the “emission maximum λem” value amounted to 662 nm; the “extinction coefficient ε” value was 51500 M⁻¹ cm⁻¹ and 51000 M⁻¹ cm⁻¹. Moreover, in data set [6], the “D0.5 in 1,4-dioxane/water” value worked out at 72.4.
In turn, `C[Si]1(C)c2cc(N3CCC3)ccc2C2(OC(=O)c3ccccc32)c2ccc(N3CCC3)cc21` [JF646, reference compound] showed a fluorescence quantum yield in data set [3] of 0.54.
Take `O=C(O)c1ccccc1C1=c2cc3c4c(c2Oc2c1cc1c5c2CCCN5CCC1)CCC[N+]=4CCC3.[Cl-]` [Rhodamine 101]: the fluorescence quantum yield entry in data set [2] (in both organic and aqueous solutions) is given as “more than 0.90”.
`CN(C)c1ccc2c(c1)[Si](C)(C)c1cc(N(C)C)ccc1C21OC(=O)c2ccccc21` [SiR, reference compound]: in data set [3] (PBS buffer pH 7.4), the “absorption maximum λmax” value was 645 nm, the “emission maximum λem” value is 661 nm and the “extinction coefficient ε” value amounted to 93000 M⁻¹ cm⁻¹. In addition, the fluorescence quantum yield in data set [3] is given as 0.41. For the same molecule, the “D0.5 in 1,4-dioxane/water” value in data set [6] turned out to be 64.5.
“N-Hydroxysuccinimidyl eater of N,N′-bis-(2,2,2-trifluoro-ethyl)-6′-carboxy-Q-rhodamine-β,β′-diol [Compound 5-NHS]”: the “stability” value in data set [1] is reported as “stable”.

The values above are taken from patent US20190367737A1, “CELL-PENETRATING FLUORESCENT DYES WITH SECONDARY ALCOHOL FUNCTIONALITIES” (Max-Planck-Gesellschaft zur foerderung der Wissenschaften …, priority 2016, published 2019).
